PubChem BioAssay (NCI)
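Assay format: 96-well plates, 48-hour exposure. Definition used: TGI = concentration required for complete inhibition of growth.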

Experiments:
Experiment in all cases: NCI-60 cell line screen, 48 h
MOLT-4 leukemia = test system: MOLT-4 leukemia
786-0 renal = test system: 786-0 renal
COLO 205 colon = test system: COLO 205 colon
OVCAR-5 ovarian = test system: OVCAR-5 ovarian
SK-OV-3 ovarian = test system: SK-OV-3 ovarian
UACC-257 melanoma = test system: UACC-257 melanoma
IGROV1 ovarian = test system: IGROV1 ovarian
SK-MEL-28 melanoma = test system: SK-MEL-28 melanoma
HT29 colon = test system: HT29 colon
ACHN renal = test system: ACHN renal
NCI-H460 lung = test system: NCI-H460 lung
A498 renal = test system: A498 renal
SR leukemia = test system: SR leukemia
RXF 393 renal = test system: RXF 393 renal
SK-MEL-2 melanoma = test system: SK-MEL-2 melanoma
RPMI-8226 leukemia = test system: RPMI-8226 leukemia
UACC-62 melanoma = test system: UACC-62 melanoma
KM20L2 colon = test system: KM20L2 colon
U251 CNS = test system: U251 CNS
M14 melanoma = test system: M14 melanoma
OVCAR-4 ovarian = test system: OVCAR-4 ovarian
SNB-19 CNS = test system: SNB-19 CNS
HCT-116 colon = test system: HCT-116 colon
LOX IMVI melanoma = test system: LOX IMVI melanoma
LXFL 529 NSCLC = test system: LXFL 529 NSCLC
EKVX NSCLC = test system: EKVX NSCLC
MALME-3M melanoma = test system: MALME-3M melanoma
SF-295 CNS = test system: SF-295 CNS
NCI-H522 lung = test system: NCI-H522 lung
SN12C renal = test system: SN12C renal
DMS 114 small cell lung = test system: DMS 114 small cell lung
OVCAR-3 ovarian = test system: OVCAR-3 ovarian
CCRF-CEM leukemia = test system: CCRF-CEM leukemia
HCT-15 colon = test system: HCT-15 colon
K-562 leukemia = test system: K-562 leukemia
SF-268 CNS = test system: SF-268 CNS
CAKI-1 renal = test system: CAKI-1 renal
HOP-92 NSCLC = test system: HOP-92 NSCLC
DLD-1 colon = test system: DLD-1 colon
DMS 273 small cell lung = test system: DMS 273 small cell lung
TK-10 renal = test system: TK-10 renal
A549 NSCLC = test system: A549 NSCLC
KM12 colon = test system: KM12 colon
OVCAR-8 ovarian = test system: OVCAR-8 ovarian
UO-31 renal = test system: UO-31 renal
XF 498 CNS = test system: XF 498 CNS
SNB-75 CNS = test system: SNB-75 CNS
NCI-H23 lung = test system: NCI-H23 lung
SK-MEL-5 melanoma = test system: SK-MEL-5 melanoma
SW-620 colon = test system: SW-620 colon
HOP-62 NSCLC = test system: HOP-62 NSCLC
HOP-18 NSCLC = test system: HOP-18 NSCLC
M19-MEL melanoma = test system: M19-MEL melanoma
HCC-2998 colon = test system: HCC-2998 colon
HL-60(TB) leukemia = test system: HL-60(TB) leukemia
SF-539 CNS = test system: SF-539 CNS
MDA-MB-435 = test system: MDA-MB-435
PC-3 prostate = test system: PC-3 prostate
MDA-N = test system: MDA-N
BT-549 breast = test system: BT-549 breast
NCI/ADR-RES ovarian = test system: NCI/ADR-RES ovarian
T-47D breast = test system: T-47D breast
MCF7 breast = test system: MCF7 breast
HS 578T breast = test system: HS 578T breast
DU-145 prostate = test system: DU-145 prostate
NCI-H226 lung = test system: NCI-H226 lung
MDA-MB-231 breast = test system: MDA-MB-231 breast

CCOC(=O)C(=O)/C=C(\C)Nc1c(NC2OCC(OC(C)=O)C(OC(C)=O)C2OC(C)=O)nc(SC)[nH]c1=O (centres undefined)
TGI (MOLT-4 leukemia): > 100 µM
TGI (786-0 renal): > 100 µM
TGI (COLO 205 colon): > 100 µM
TGI (OVCAR-5 ovarian): > 100 µM
TGI (SK-OV-3 ovarian): > 100 µM
TGI (UACC-257 melanoma): > 100 µM
TGI (IGROV1 ovarian): > 100 µM
TGI (SK-MEL-28 melanoma): > 100 µM
TGI (HT29 colon): > 100 µM
TGI (ACHN renal): > 100 µM
TGI (NCI-H460 lung): > 100 µM
TGI (A498 renal): > 100 µM
TGI (SR leukemia): > 100 µM
TGI (RXF 393 renal): > 100 µM
TGI (SK-MEL-2 melanoma): > 100 µM
TGI (RPMI-8226 leukemia): > 100 µM
TGI (UACC-62 melanoma): > 100 µM
TGI (KM20L2 colon): > 100 µM
TGI (U251 CNS): > 100 µM
TGI (M14 melanoma): > 100 µM
TGI (OVCAR-4 ovarian): > 100 µM
TGI (SNB-19 CNS): > 100 µM
TGI (HCT-116 colon): > 100 µM
TGI (LOX IMVI melanoma): > 100 µM
TGI (LXFL 529 NSCLC): > 100 µM
TGI (EKVX NSCLC): > 100 µM
TGI (MALME-3M melanoma): > 100 µM
TGI (SF-295 CNS): > 100 µM
TGI (NCI-H522 lung): > 100 µM
TGI (SN12C renal): > 100 µM
TGI (DMS 114 small cell lung): > 100 µM
TGI (OVCAR-3 ovarian): > 100 µM
TGI (CCRF-CEM leukemia): > 100 µM
TGI (HCT-15 colon): > 100 µM
TGI (K-562 leukemia): > 100 µM
TGI (SF-268 CNS): > 100 µM
TGI (CAKI-1 renal): > 100 µM
TGI (HOP-92 NSCLC): > 100 µM
TGI (DLD-1 colon): > 100 µM
TGI (DMS 273 small cell lung): > 100 µM
TGI (TK-10 renal): > 100 µM
TGI (A549 NSCLC): > 100 µM
TGI (KM12 colon): > 100 µM
TGI (OVCAR-8 ovarian): > 100 µM
TGI (UO-31 renal): > 100 µM
TGI (XF 498 CNS): > 100 µM
TGI (SNB-75 CNS): > 100 µM
TGI (NCI-H23 lung): > 100 µM
TGI (SK-MEL-5 melanoma): > 100 µM
TGI (SW-620 colon): > 100 µM
TGI (HOP-62 NSCLC): > 100 µM
TGI (HOP-18 NSCLC): > 100 µM
TGI (M19-MEL melanoma): > 100 µM
TGI (HCC-2998 colon): > 100 µM

CCOC(=O)N1C=NC23C(c4ccccc4)C(c4ccccc4)C12C(=O)N(C)C(=O)N3C (centres undefined)
TGI (MOLT-4 leukemia): > 100 µM
TGI (786-0 renal): > 100 µM
TGI (COLO 205 colon): > 100 µM
TGI (OVCAR-5 ovarian): > 100 µM
TGI (SK-OV-3 ovarian): > 100 µM
TGI (UACC-257 melanoma): > 100 µM
TGI (IGROV1 ovarian): > 100 µM
TGI (SK-MEL-28 melanoma): > 100 µM
TGI (HT29 colon): > 100 µM
TGI (HL-60(TB) leukemia): > 100 µM
TGI (ACHN renal): > 100 µM
TGI (NCI-H460 lung): > 100 µM
TGI (A498 renal): > 100 µM
TGI (SR leukemia): > 100 µM
TGI (RXF 393 renal): > 100 µM
TGI (SK-MEL-2 melanoma): > 100 µM
TGI (RPMI-8226 leukemia): > 100 µM
TGI (UACC-62 melanoma): > 100 µM
TGI (KM20L2 colon): > 100 µM
TGI (U251 CNS): > 100 µM
TGI (M14 melanoma): > 100 µM
TGI (OVCAR-4 ovarian): > 100 µM
TGI (SNB-19 CNS): > 100 µM
TGI (HCT-116 colon): > 100 µM
TGI (LOX IMVI melanoma): > 100 µM
TGI (LXFL 529 NSCLC): > 100 µM
TGI (EKVX NSCLC): > 100 µM
TGI (MALME-3M melanoma): > 100 µM
TGI (SF-295 CNS): > 100 µM
TGI (NCI-H522 lung): > 100 µM
TGI (SN12C renal): > 100 µM
TGI (OVCAR-3 ovarian): > 100 µM
TGI (CCRF-CEM leukemia): > 100 µM
TGI (HCT-15 colon): > 100 µM
TGI (K-562 leukemia): > 100 µM
TGI (SF-268 CNS): > 100 µM
TGI (CAKI-1 renal): > 100 µM
TGI (HOP-92 NSCLC): > 100 µM
TGI (DLD-1 colon): > 100 µM
TGI (DMS 273 small cell lung): > 100 µM
TGI (TK-10 renal): > 100 µM
TGI (A549 NSCLC): > 100 µM
TGI (KM12 colon): > 100 µM
TGI (OVCAR-8 ovarian): > 100 µM
TGI (UO-31 renal): > 100 µM
TGI (XF 498 CNS): > 100 µM
TGI (SNB-75 CNS): > 100 µM
TGI (NCI-H23 lung): > 100 µM
TGI (SK-MEL-5 melanoma): > 100 µM
TGI (SW-620 colon): > 100 µM
TGI (HOP-62 NSCLC): > 100 µM
TGI (HOP-18 NSCLC): > 100 µM
TGI (M19-MEL melanoma): > 100 µM
TGI (HCC-2998 colon): > 100 µM

COc1nc(NC2OC(COC(C)=O)C(OC(C)=O)C(OC(C)=O)C2OC(C)=O)c(N=CC=Nc2c(NC3OC(COC(C)=O)C(OC(C)=O)C(OC(C)=O)C3OC(C)=O)nc(OC)n(C)c2=O)c(=O)n1C (centres undefined)
TGI (MOLT-4 leukemia): > 100 µM
TGI (786-0 renal): > 100 µM
TGI (COLO 205 colon): > 100 µM
TGI (OVCAR-5 ovarian): > 100 µM
TGI (SK-OV-3 ovarian): > 100 µM
TGI (UACC-257 melanoma): > 100 µM
TGI (IGROV1 ovarian): > 100 µM
TGI (SK-MEL-28 melanoma): > 100 µM
TGI (HT29 colon): > 100 µM
TGI (HL-60(TB) leukemia): > 100 µM
TGI (ACHN renal): > 100 µM
TGI (NCI-H460 lung): > 100 µM
TGI (A498 renal): > 100 µM
TGI (SR leukemia): > 100 µM
TGI (RXF 393 renal): > 100 µM
TGI (SK-MEL-2 melanoma): > 100 µM
TGI (RPMI-8226 leukemia): > 100 µM
TGI (UACC-62 melanoma): > 100 µM
TGI (KM20L2 colon): > 100 µM
TGI (SF-539 CNS): > 100 µM
TGI (MDA-MB-435): > 100 µM
TGI (U251 CNS): > 100 µM
TGI (M14 melanoma): > 100 µM
TGI (OVCAR-4 ovarian): > 100 µM
TGI (SNB-19 CNS): > 100 µM
TGI (PC-3 prostate): > 100 µM
TGI (HCT-116 colon): > 100 µM
TGI (LOX IMVI melanoma): > 100 µM
TGI (LXFL 529 NSCLC): > 100 µM
TGI (MDA-N): > 100 µM
TGI (EKVX NSCLC): > 100 µM
TGI (MALME-3M melanoma): > 100 µM
TGI (SF-295 CNS): > 100 µM
TGI (NCI-H522 lung): > 100 µM
TGI (SN12C renal): > 100 µM
TGI (DMS 114 small cell lung): > 100 µM
TGI (OVCAR-3 ovarian): > 100 µM
TGI (CCRF-CEM leukemia): > 100 µM
TGI (HCT-15 colon): > 100 µM
TGI (K-562 leukemia): > 100 µM
TGI (SF-268 CNS): > 100 µM
TGI (CAKI-1 renal): > 100 µM
TGI (HOP-92 NSCLC): > 93.1 µM
TGI (DLD-1 colon): > 100 µM
TGI (BT-549 breast): > 100 µM
TGI (NCI/ADR-RES ovarian): > 100 µM
TGI (TK-10 renal): > 100 µM
TGI (T-47D breast): > 100 µM
TGI (MCF7 breast): > 100 µM
TGI (HS 578T breast): 90.2 µM
TGI (A549 NSCLC): > 100 µM
TGI (KM12 colon): > 100 µM
TGI (OVCAR-8 ovarian): > 100 µM
TGI (DU-145 prostate): > 100 µM
TGI (NCI-H226 lung): > 100 µM
TGI (UO-31 renal): > 100 µM
TGI (MDA-MB-231 breast): > 100 µM
TGI (XF 498 CNS): 81.9 µM
TGI (SNB-75 CNS): 48.2 µM
TGI (NCI-H23 lung): > 100 µM
TGI (SK-MEL-5 melanoma): > 100 µM
TGI (SW-620 colon): > 100 µM
TGI (HOP-62 NSCLC): > 86.6 µM
TGI (HOP-18 NSCLC): > 100 µM
TGI (M19-MEL melanoma): > 100 µM
TGI (HCC-2998 colon): > 100 µM
